Experiment [1] concerns the target T1, recombinant human furin (Homo sapiens, UniProt P09958).
T1 construct: purchased R&D Systems
Briefly: Second order rate constant determination, steady-state fluorimetric assay (pERTKR-NH2Mec). The following applies: irreversible inhibitor kinetics, 50 μM pERTKR-NH2Mec, 37°C, pH 7.4. It counts as biochemical. Here is the method:
A range of final inhibitor concentrations (at least 5) were prepared from a 10 mM stock solution of QUB-F1 (in N,N-dimethyformamide (DMF)). The fluorogenic substrate, p-Glu-Arg-Thr-Lys-Arg-NH2Mec (pERTKR-AMC), was diluted in assay buffer (25 mM Tris/HCl containing 1 mM CaCl2, pH 7.4) and used at a fixed concentration of 50 μM throughout. All inhibition assays were performed in microtitre plates maintained at 37°C in a final volume of 100 μl. The reaction was initiated by the addition of recombinant human furin (0.01 μg/well) and the rate of substrate hydrolysis continuously recorded at λex 360 nm, λem 480 nm, over a period of 90 minutes using a FLUOstar Optima microplate reader (BMG Labtech). The resultant inhibition progress curve for QUB-F1 was then analysed according to the kinetic models developed by Tian and Tsou and Walker and Elmore, for irreversible inhibitors, using GRAFIT (Erithacus Software). The inhibitor constant Ki, the apparent first order rate constant k3, and over all second-order rate constant (k3/Ki) for QUB-F1 against furin was determined, from a plot of 1/A against [I] (where A is the apparent second-order rate constant for irreversible inhibition determined for each inhibitor concentration [I]). The determination of Km and Vmax were also determined separately by fitting initial rates of hydrolysis to substrate concentration, according to Michaelis-Menten kinetics, also using GRAFIT (Erithacus Software). The inhibitor constant Ki, the apparent first order rate constant k3, and the overall second-order rate constant (k3/Ki) for QUB-F1 against furin were determined, from a plot of 1/A against [I] (where A is the apparent second-order rate constant for irreversible inhibition determined for each inhibitor concentration [I]).
The ability of QUB-F1 to inhibit recombinant human furin was assessed using a steady-state fluorimetric assay employing the cognate fluorescent substrate (pERTKR-NH2Mec). The k3, Ki and k3/Ki values where determined as follows: Ki 9.33 (± 0.32) x 10^−7 M, k3 0.016 (± 0.004) min^-1 and k3/Ki […] M^-1 min^-1. […]

Experiment [2] concerns the target T1, recombinant human furin. Briefly: Western blot with streptavidin-HRP of inhibitor-furin complex. It counts as binding. The following applies: QUB-F1 100 μM, furin 0.4 μg, reducing and denaturing conditions. Here is the method:
Recombinant human furin (0.4 μg) was incubated with QUB-F1 (100 μM) for 45 minutes at 37°C. The sample was then denatured and reduced in Laemmli treatment buffer for 5 minutes at 95°C, resolved by SDS-PAGE, before transfer onto a nitrocellulose membrane which was blocked with a solution of Tris-buffered saline (TBS) containing 3% (w/v) bovine serum albumin and 0.1% (v/v) Tween-20. The membrane was subsequently probed with a streptavidin-Horseradish peroxidase conjugate (1:10,000) (Vector-Laboratories) in blocking solution for 1 h prior to detection by chemiluminescence (Luminata Forte Western HRP substrate (Millipore)).
Fig 1 Irreversible inhibition and visualization of recombinant human furin by QUB-F1. […] The inhibitor-proteases complex can be visualized using streptavidin-HRP, which detects the biotin reporter group on the compound.
Background: In western blotting, separated proteins are transferred to a membrane and probed.

Another experiment has as its target T2, factor Xa (Homo sapiens, UniProt P00742).
T2 construct: factor Xa and neutrophil elastase (Merck Millipore); purchased Merck Millipore
Briefly: Fluorogenic protease activity assay, factor Xa. It counts as biochemical. The following applies: 10 μM inhibitor, Boc-Ile-Glu-Gly-Arg-NH2Mec 50 μM, N = 3. The source says: (§1) Recombinant human enzymes were sourced as follows: furin and matriptase (R&D Systems); prostasin (Sino Biological); trypsin and chymotrypsin (Sigma-Aldrich); factor Xa and neutrophil elastase (Merck Millipore) and proteinase-3 and cathepsin G (Elastin Products, Missouri). Fluorogenic substrates were sourced as follows: p-Glu-Arg-Thr-Lys-Arg-NH2Mec and Boc-Gln-Ala-Arg-NH2Mec (R&D Systems); Boc-Ile-Glu-Gly-Arg-NH2Mec (Bachem); Z-Gly-Gly-Arg-NH2Mec, MeOSuc-Ala-Ala-Pro-Val-NH2Mec and Suc-Ala-Ala-Pro-Phe-NH2Mec (Sigma-Aldrich). All chemicals and reagents for the synthesis of QUB-F1 were supplied by Sigma-Aldrich unless otherwise indicated. Fmoc-Lys(Boc)-SASRIN resin was sourced from Bachem. Fmoc-protected amino acids and HCTU were supplied by Merck Millipore.
(§2) Recombinant protease activities were assessed using the cognate fluorogenic substrates (final concentration 50 μM) as follows: trypsin (Z-Gly-Gly-Arg-NH2Mec), prostasin and matriptase (Boc-Gln-Ala-Arg-NH2Mec), factor Xa (Boc-Ile-Glu-Gly-Arg-NH2Mec), neutrophil elastase and proteinase 3 (MeO-Suc-Ala-Ala-Pro-Val-NH2Mec), chymotrypsin and cathepsin G (Suc-Ala-Ala-Pro-Phe-NH2Mec). The rate of substrate hydrolysis in the presence or absence of furin inhibitors was assessed by continuous recording at λex 360 nm, λem 480 nm, over a period of 60 minutes using a FLUOstar Optima microplate reader (BMG Labtech). […]

The target in the next experiment is T3, prostasin (Homo sapiens, UniProt Q16651).
T3 construct: purchased Sino Biological
T3 sequence (Q16651 33-343): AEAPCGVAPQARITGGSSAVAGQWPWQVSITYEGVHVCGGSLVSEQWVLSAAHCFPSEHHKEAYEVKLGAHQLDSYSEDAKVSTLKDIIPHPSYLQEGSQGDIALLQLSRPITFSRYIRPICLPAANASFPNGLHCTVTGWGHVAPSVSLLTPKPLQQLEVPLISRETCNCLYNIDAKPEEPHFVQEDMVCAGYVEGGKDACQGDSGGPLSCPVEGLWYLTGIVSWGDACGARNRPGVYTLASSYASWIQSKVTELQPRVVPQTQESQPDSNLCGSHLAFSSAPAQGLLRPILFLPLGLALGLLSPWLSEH
Briefly: Fluorogenic protease activity assay, prostasin. It counts as biochemical. The following applies: 10 μM inhibitor, Boc-Gln-Ala-Arg-NH2Mec 50 μM, N = 3.
Excerpt: as §1, §2

Side chains are listed from the residue outwards. Peptide text beside a SMILES is read from it. * marks the point of attachment. Biotin = O=C1N[C@H]2[C@H](CS[C@H]2CCCCC(=O)*)N1; X1 = N=C(N)NCCCC(N*)P(=O)(Oc1ccccc1)Oc1ccccc1; Palmitoyl = CCCCCCCCCCCCCCCC(=O)*; Ahx = NCCCCCC(=O)O

Here are results for one compound from PMC4961418, “A Selective Irreversible Inhibitor of Furin Does Not Prevent Pseudomonas Aeruginosa Exotoxin A-Induced Airway Epithelial Cytotoxicity” (PLoS ONE, 2016).

T1 sequence (P09958 108-794): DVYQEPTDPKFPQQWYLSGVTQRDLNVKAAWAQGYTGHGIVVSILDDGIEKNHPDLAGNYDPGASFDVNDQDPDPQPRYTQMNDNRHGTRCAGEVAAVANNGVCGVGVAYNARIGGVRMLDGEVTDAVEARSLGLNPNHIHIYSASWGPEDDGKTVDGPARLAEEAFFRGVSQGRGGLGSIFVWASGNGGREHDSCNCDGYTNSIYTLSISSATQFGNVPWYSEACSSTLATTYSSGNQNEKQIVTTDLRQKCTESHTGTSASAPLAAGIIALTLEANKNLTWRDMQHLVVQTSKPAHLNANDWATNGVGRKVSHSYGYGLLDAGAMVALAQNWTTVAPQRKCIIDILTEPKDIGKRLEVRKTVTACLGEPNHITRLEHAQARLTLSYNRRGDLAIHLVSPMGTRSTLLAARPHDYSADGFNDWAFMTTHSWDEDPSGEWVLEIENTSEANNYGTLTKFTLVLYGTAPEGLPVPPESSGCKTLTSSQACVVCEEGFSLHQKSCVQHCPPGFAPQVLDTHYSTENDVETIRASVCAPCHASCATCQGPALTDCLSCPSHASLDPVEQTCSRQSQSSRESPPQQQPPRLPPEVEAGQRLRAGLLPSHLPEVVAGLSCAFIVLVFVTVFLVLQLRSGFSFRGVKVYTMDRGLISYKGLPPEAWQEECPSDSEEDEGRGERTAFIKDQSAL
T2 sequence (P00742 235-488 limits assumed): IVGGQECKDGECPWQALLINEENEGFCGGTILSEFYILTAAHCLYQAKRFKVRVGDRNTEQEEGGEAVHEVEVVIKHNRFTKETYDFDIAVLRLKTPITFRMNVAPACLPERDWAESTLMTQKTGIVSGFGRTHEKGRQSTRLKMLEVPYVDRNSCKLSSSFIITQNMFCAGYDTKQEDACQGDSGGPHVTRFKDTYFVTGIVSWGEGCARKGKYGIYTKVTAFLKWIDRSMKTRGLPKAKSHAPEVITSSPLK
T2 sequence (P00742 41-179 partner limits assumed): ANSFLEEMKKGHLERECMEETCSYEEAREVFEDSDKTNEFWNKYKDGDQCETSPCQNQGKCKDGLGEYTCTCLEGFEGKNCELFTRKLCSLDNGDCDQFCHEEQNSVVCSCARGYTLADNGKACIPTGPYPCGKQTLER

Consider `CCCCCCCCCCCCCCCC(=O)N[C@@H](CCCCNC(=O)CCCCCNC(=O)CCCC[C@@H]1SC[C@@H]2NC(=O)N[C@@H]21)C(=O)N[C@@H](CCCNC(=N)N)C(=O)N[C@H](C(=O)N[C@@H](CCCCN)C(=O)NC(CCCNC(=N)N)P(=O)(Oc1ccccc1)Oc1ccccc1)C(C)C` (stereo partly drawn) [QUB-F1, N^α-Pal-N^ω-(Biotinyl-Ahx)-Lys-RVKR^P(OPh)2] (Palmitoyl-K([Ahx-Biotin])RVK-X1), for which, on recombinant human furin [1], the Ki was found to be 0.933 µM and the “k3 (apparent first order rate constant)” value was 0.016 (± 0.004) min^-1. Further, the kinact/KI on recombinant human furin [1] (read-out: k3/Ki (overall second-order rate constant) (converted)) is 342 M⁻¹ s⁻¹. The “irreversible binding to furin (visualized by streptavidin-HRP)” value at recombinant human furin [2] was “irreversibly bound”. Also, the “inhibition of factor Xa” value against factor Xa was “did not”. Also, the inhibition of prostasin entry on prostasin is reported as “did not”.
